Data from article PMC7287882, “Dual miRNases for Triple Incision of miRNA Target: Design Concept and Catalytic Performance” (Molecules, 2020).

Columns and labels:
miR-17 = experiment: Ribonuclease activity assay, cleavage of miR-17; type: biochemical; conditions: miRNA 1 µM, DC 20 µM, 37 °C
Protocol: The ribonuclease activity of DCs was studied under two different buffer conditions: buffer (1) contained 50 mM Tris-HCl, pH 7.0, 200 mM KCl, 1 mM EDTA, which imitates intracellular conditions (e.g., pH and potassium ions concentration) and was used in a number of studies previously; and buffer (2) contained 20 mM Tris-HCl, pH 7.8, 40 mM KCl, 8 mM MgCl2, 1 mM DTT, 0.02 mg/mL BSA, which is recommended for in vitro reactions with RNase H (Figure 3 and Figure 4).
Figure 3 Kinetics of cleavage of 5′-[^32P]-labeled miR-17, miR-18a, miR-155, miR-21 and miR-21_1 by corresponding DCs in the buffer (1), containing 50 mM Tris-HCl, pH 7.0, 200 mM KCl and 1 mM EDTA. (a–e) Radioautographs of 18% denaturing PAAG showing the cleavage products of miR-17, miR-18a, miR-155, miR-21 and miR-21_1, respectively. miRNA (1 µM) and corresponding DC (20 µM) were incubated at 37 °C for 72 h. Lanes Im and T1—imidazole ladder and partial RNA digestion with RNase T1, respectively; control–miRNA was incubated in the absence of the conjugate. The incubation time (in hours) is show at the top. SS gap–single-stranded region of miRNA formed upon hybridization with DC; (f) Kinetics of miRNAs cleavage by DCs depending on the incubation time. Data are presented as mean ± s.e.
Figure 4 Kinetics of cleavage of 5′-[^32P]-labeled miR-17, miR-18a, miR-155, miR-21, and miR-21_1 by corresponding DCs in the buffer (2), containing 20 mM Tris-HCl, pH 7.8, 40 mM KCl, 8 mM MgCl2, 1 mM DTT, 0.02 mg/mL BSA. (a–e) Radioautographs of 18% denaturing PAAG showing the cleavage products of miR-17, miR-18a, miR-155, miR-21 and miR-21_1, respectively. miRNA (1 µM) and corresponding DC (20 µM) were incubated at 37 °C for 72 h. Lanes Im and T1–imidazole ladder and partial RNA digestion with RNase T1, respectively; control–miRNA was incubated in the absence of the conjugate. The incubation time (in hours) is shown at the top. SS gap–single-stranded region of miRNA formed upon hybridization with DC; (f) Kinetics of miRNAs cleavage by DCs. Data are presented as mean ± s.e.
The reaction mixture (10 µL) contained 800 cpm (Cherenkov’s counting) of [^32P]-miRNA, 1 μM unlabeled miRNA, one of the conjugates at a concentration 10 or 20 μM and one of the buffers: 50 mM Tris-HCl, pH 7.0, 200 mM KCl, 1 mM EDTA–buffer (1) or 20 mM Tris-HCl, pH 7.8, 40 mM KCl, 8 mM MgCl2, 1 mM DTT, 0.02 mg/mL BSA–buffer (2). The mixture was incubated at 37 °C for 0–72 h and quenched by precipitation of RNA with 2% LiClO4 in acetone (90 µL). RNA was collected by centrifugation and dissolved in loading buffer (8 M urea, 0.025% bromophenol blue, 0.025% xylene cyanol). RNA cleavage products were analyzed in 18% PAAG/8M urea using TBE (100 mM Tris-borate, pH 8.3, 2 mM EDTA) as running buffer. To identify cleavage sites, an imidazole and T1-ladders produced by partial RNA cleavage with 2 M imidazole buffer (pH 7.0) and with RNase T1 [68], respectively, were run in parallel. To obtain quantitative data, gels were dried and analyzed using Molecular Imager FX. The total extent of RNA cleavage and the extent of RNA cleavage at each individual site were determined by using Quantity One software v.4.1 (Bio-Rad, Hercules, CA, USA).

miR-18a = experiment: Ribonuclease activity assay at different concentrations of MgCl2; type: biochemical; conditions: 50 mM Tris-HCl pH 7.0, 100 mM KCl, 1 mM DTT, 0.02 mg/mL BSA, 37 °C, 48 h; for Cleavage: miRNA 1 µM, DC 20 µM, mean ± s.e.
Protocol: In order to understand the effect of Mg^2+ ions on the efficiency and specificity of miRNA cleavage by DCs, miR-18a was incubated with the matching DC in the buffer containing 50 mM Tris-HCl, pH 7.0, 100 mM KCl, 1 mM DTT, 0.02 mg/mL BSA, but with different Mg^2+ concentration varied from 0 to 15 mM.
Reaction with different concentration of MgCl2 was performed in reaction mixtures (8 µL) containing 320 cpm (Cherenkov’s counting) of [^32P]-miR-18a, 1 μM unlabeled miRNA, 20 µM of miR-18a-DC in buffers contained 100 mM KCl, 50 mM Tris-HCl pH 7.0, 1mM DTT, 0.02 mg/mL BSA and MgCl2 at concentration 0, 2, 4, 8 or 15 mM at 37 °C for 48 h. RNA cleavage products were collected and analyzed as described above.

| Substance | Total Cleavage (miR-17; buffer (1) 50 mM Tris-HCl pH 7.0, 200 mM KCl, 1 mM EDTA, 2 h) [%] | Total Cleavage (miR-17; buffer (1) 50 mM Tris-HCl pH 7.0, 200 mM KCl, 1 mM EDTA, 6 h) [%] | Total Cleavage (miR-17; buffer (1) 50 mM Tris-HCl pH 7.0, 200 mM KCl, 1 mM EDTA, 24 h) [%] | Total Cleavage (miR-17; buffer (1) 50 mM Tris-HCl pH 7.0, 200 mM KCl, 1 mM EDTA, 48 h) [%] | Total Cleavage (miR-17; buffer (1) 50 mM Tris-HCl pH 7.0, 200 mM KCl, 1 mM EDTA, 72 h) [%] | Total Cleavage (miR-17; buffer (2) 20 mM Tris-HCl pH 7.8, 40 mM KCl, 8 mM MgCl2, 1 mM DTT, 0.02 mg/mL BSA, 2 h) | Total Cleavage (miR-17; buffer (2) 20 mM Tris-HCl pH 7.8, 40 mM KCl, 8 mM MgCl2, 1 mM DTT, 0.02 mg/mL BSA, 6 h) [%] | Total Cleavage (miR-17; buffer (2) 20 mM Tris-HCl pH 7.8, 40 mM KCl, 8 mM MgCl2, 1 mM DTT, 0.02 mg/mL BSA, 24 h) [%] | Total Cleavage (miR-17; buffer (2) 20 mM Tris-HCl pH 7.8, 40 mM KCl, 8 mM MgCl2, 1 mM DTT, 0.02 mg/mL BSA, 48 h) [%] | Total Cleavage (miR-17; buffer (2) 20 mM Tris-HCl pH 7.8, 40 mM KCl, 8 mM MgCl2, 1 mM DTT, 0.02 mg/mL BSA, 72 h) [%] | rise of Kobs in buffer (2) compared to Kobs in buffer (1) (miR-17) [fold] | Cleavage (miR-18a; Mg2+ 0 mM) [%] | Cleavage (miR-18a; Mg2+ 2 mM) [%] | Cleavage (miR-18a; Mg2+ 4 mM) [%] | Cleavage (miR-18a; Mg2+ 8 mM) [%] | Cleavage (miR-18a; Mg2+ 15 mM) [%] | ribonuclease activity of DC (cleavage), unaffected by addition of Mg2+ (miR-18a; Mg2+ varied from 0 to 15 mM) |
| --- | --- | --- | --- | --- | --- | --- | --- | --- | --- | --- | --- | --- | --- | --- | --- | --- | --- |
| CTACCTGC–linker 1–[GRLRL]2–linker 2–AAGCACTTTG [miRNA-17-DC, Dual oligonucleotide-peptide conjugate targeted to miR-17: catalytic peptide [LRLRG]2 between two 2-aminoadenine-containing oligodeoxyribonucleotides] | 0 | 0 | 1 | 2 | 5 | 1,5% | 4 | 18 | 32 | 40 | 10 | – | – | – | – | – | – |
| TATCTGC–linker 1–[GRLRL]2–linker 2–ATGCACCTTA [miRNA-18a-DC, Dual oligonucleotide-peptide conjugate targeted to miR-18a: catalytic peptide [LRLRG]2 between two 2-aminoadenine-containing oligodeoxyribonucleotides] | – | – | – | – | – | – | – | – | – | – | – | 26.4±4.0 | 28.8±3.9 | 24.3±2.7 | 23.1±3.1 | 27.2±4.3 | approximately 26% |
